Test results published in patent US9732078B2, “Therapeutic use of imidazopyridine derivatives” (SANOFI, priority 2012, dated 2017).

Columns and labels:
Assay type in all cases: cell-based
[1] = system: TCC97-7 bladder cancer tumour cells carrying the Ser249Cys mutation of FGF receptor 3; experiment: Inhibition of serum-induced proliferation of TCC97-7 bladder cancer cells (count of Hoechst 33342-labelled nuclei after 3 days); conditions: TCC97-7 cells in presence of serum
Method: To do this, 2000 cells are seeded in the morning in 50 μl of complete medium (Ham-F/12, 1% FCS, 2 mM glutamine, non-essential amino acids, sodium pyruvate, 1% insulin/transferrin/selenium, hydrocortisone). In the evening, 50 μl of the various compounds are added at 0.02, 0.2, 2 or 20 μM after dilution in complete culture medium in order to obtain final concentrations of 0.01, 0.1, 1 and 10 μM. After 3 days, the cell proliferation is evaluated by measuring the number of nuclei at the bottom of each well corresponding to a number of cells. The nuclei are detected by means of labelling with Hoechst 33342 (Invitrogen, ref H3570). 100 μl of Hoechst 33342 diluted to 1/5000th in PBS are added to each well for 30 min at ambient temperature on non-fixed cells. The nuclei are detected by fluorescence at 350 nm at ×2 magnification with an Operetta (PerkinElmer) using the Acapella (PerkinElmer) imaging software and analysed using the Columbus (PerkinElmer) image analysis software. The percentage inhibition of the cell proliferation is calculated by considering the number of nuclei present in the wells in which the TCC97-7 cells are cultured in the absence of FGF-R antagonists to be 0% inhibition. 100% inhibition would correspond to a well no longer containing cells.

[2] = system: TCC97-7 bladder cancer tumour cells carrying the Ser249Cys mutation of FGF receptor 3; experiment: Cytotoxic effect: percentage of permeabilized (very fluorescent, Hoechst 33342) TCC97-7 cells; conditions: 3 days
Method: In parallel to their antiproliferative capacity, the potential cytotoxic effect of the FGF-R antagonists is measured by means of quantifying the number of cells of which the membranes are permeabilized. The appearance of pores in the plasma membrane of the cells corresponds to a state of cell death which enables the Hoechst 33342 to penetrate more easily into the cell. This is reflected by a very strong increase in the amount of fluorescence detected in the nuclei. The percentage of cells in a state of cell death is calculated by the ratio between the number of very fluorescent nuclei to the total number of nuclei, multiplied by 100. The observations are carried out in the same way as the quantification of the nuclei for the cell proliferation.

[3] = system: TCC97-7 bladder cancer cells carrying the Ser249Cys mutation of FGF receptor 3; experiment: Reduction of intracellular ATP content of TCC97-7 cells (Cell Titer-Glo, 3 days, serum-supplemented medium); conditions: TCC97-7 cells in presence of serum
Method: Evaluation of the Capacity of the FGF-R Antagonists to Reduce the ATP Content of TCC97-7 Bladder Cancer Cells Carrying the Ser249Cys Mutation of FGF Receptor 3, Cultured in a Serum-Supplemented Medium
To do this, 3000 cells are seeded in 50 μl of complete medium (Ham-F/12, 1% FCS, […], non-essential amino acids, sodium pyruvate, 1% insulin/transferrin/selenium, hydrocortisone). 16 hours later, 50 μl of the various compounds are added at 0.2, 2, 20 and 60 μM after dilution in complete culture medium in order to obtain final concentrations of 0.1, 1, 10 and 30 μM. After 3 days, the ATP content of the cells is measured using the Cell Titer-Glo® Luminescent Cell Viability Assay kit (Promega, France) according to the supplier's recommendations. The percentage inhibition of the amount of intracellular ATP is calculated by considering the ATP content of the cells cultured in the absence of antagonist to be 0% inhibition. 100% inhibition would correspond to a well in which the ATP content is zero.

Row | Compound | Inhibition of proliferation (%) ([1]; 0.1 μM) | Inhibition of proliferation (%) ([1]; 1 μM) | Inhibition of proliferation (%) ([1]; 10 μM) | Cytotoxicity (% of permeable cells) ([2]; 0.01 μM) [%] | Cytotoxicity (% of permeable cells) ([2]; 0.1 μM) [%] | Cytotoxicity (% of permeable cells) ([2]; 1 μM) [%] | Cytotoxicity (% of permeable cells) ([2]; 10 μM) [%] | Inhibition of the amount of intracellular ATP (%) ([3]; 0.1 μM) | Inhibition of the amount of intracellular ATP (%) ([3]; 1 μM) | Inhibition of the amount of intracellular ATP (%) ([3]; 10 μM) | Inhibition of proliferation (%) ([1]; 0.01 μM) | Inhibition of the amount of intracellular ATP (%) ([3]; 30 μM)
1 | Cn1c(=O)n(Cc2ccc(F)cc2)c(=O)c2cc(C(=O)c3nc(-c4cccc(C(=O)[O-])c4)c4ccccn34)ccc21.[Na+] [compound 49, Sodium salt of 3-(3-{[3-(4-fluorobenzyl)-1-methyl-2,4-dioxo-1,2,3,4-tetrahydroquinazolin-6-yl]carbonyl}imidazo[1,5-a]pyridin-1-yl)benzoic acid] | 9 | 55 | 81 | 5 | 5 | 6 | 12 | −2 | 14 | 67 |  | 
2 | COCn1c(=O)n(Cc2ccc(F)cc2)c(=O)c2cc(C(=O)c3nc(-c4cccc(C(=O)[O-])c4)c4ccccn34)ccc21.[Na+] [compound 71] | 1 | 14 | 85 | 4 | 4 | 5 | 1 | −4 | −1 | 94 | 0 | 
3 | CCOC(=O)c1cccc(-c2nc(C(=O)c3ccc4c(c3)c(=O)n(Cc3ccc(F)cc3)c(=O)n4C)n3ccccc23)c1 [compound 79] | 0 | 17 | 71 | 1 | 1 | 2 | 10 | −6 | 7 | 72 | 5 | 
4 | Cn1c(=O)n(Cc2cccc(F)c2)c(=O)c2cc(C(=O)c3nc(-c4cccc(C(N)=O)c4)c4ccccn34)ccc21 [compound 108] | −5 | 6 | 22 | 4 | 5 | 4 | 4 |  |  |  | −4 | 
5 | Cc1nnc(-c2cccc(-c3nc(C(=O)c4ccc5c(c4)c(=O)n(Cc4ccc(F)cc4)c(=O)n5C)n4ccccc34)c2)o1 [compound 140] | −1 | −7 | 26 | 1 | 1 | 1 | 2 |  |  |  | 0 | 
6 | Cn1c(=O)n(CCc2ccc(F)cc2)c(=O)c2cc(C(=O)c3nc(-c4cccc(C(=O)[O-])c4)c4ccccn34)ccc21.[Na+] [compound 148] | 6 | 15 | 81 | 4 | 4 | 4 | 11 | 1 | 8 | 66 | 12 | 
7 | CCCn1c(=O)n(CCCC(C)C)c(=O)c2cc(C(=O)c3nc(-c4cccc(C(=O)[O-])c4)c4ccccn34)ccc21.[Na+] [compound 207] | 7 | 45 | 82 | 5 | 4 | 5 | 23 | 10 | 23 | 62 | 2 | 
8 | Cc1ccc(Cn2c(=O)c3cc(C(=O)c4nc(-c5cccnc5)c5ccccn45)ccc3n(C)c2=O)s1 [compound 220] | 3 | 13 | 49 | 6 | 5 | 5 | 11 | 6 | 10 | 16 | 4 | 60
9 | CCCn1c(=O)n(CCOc2ccc(F)cc2)c(=O)c2cc(C(=O)c3nc(-c4cccc(C(=O)[O-])c4)c4ccccn34)ccc21.[Na+] [compound 221, Sodium salt of 3-[3-({3-[2-(4-fluorophenoxy)ethyl]-1-propyl-2,4-dioxo-1,2,3,4-tetrahydroquinazolin-6-yl}carbonyl)imidazo[1,5-a]pyridin-1-yl]benzoic acid] | 27 | 80 | 85 | 4 | 5 | 6 | 7 | −2 | 7 | 73 | 5 | 
10 | CCCn1c(=O)n(Cc2ccc(C)s2)c(=O)c2cc(C(=O)c3nc(-c4cccc(C(=O)[O-])c4)c4ccccn34)ccc21.[Na+] [compound 224] | 0 | 27 | 82 | 3 | 3 | 4 | 9 | −1 | 20 | 83 | 3 | 
11 | Cn1c(=O)n(Cc2ccc(F)cc2)c(=O)c2cc(C(=O)c3ncc4ccccn34)ccc21 [compound 226] | 8 | 28 | 73 | 5 | 6 | 10 | 25 | −1 | 5 | 41 | 3 | 
12 | CCCn1c(=O)n(Cc2ccc(F)cc2)c(=O)c2cc(C(=O)c3nc(-c4cnc(N(C)C)nc4)c4ccccn34)ccc21 [compound 232] | 1 | 20 | 79 | 3 | 3 | 4 | 23 | 7 | 8 | 45 | −6 | 
